From US20060069132A1, “Azolecarboxamide herbicides” (priority 2004, published 2006)

Assays:
[1] = test system: large crabgrass; test: Test C pre-/postemergence herbicide test; format: in vivo, Digitaria sanguinalis; settings: for Crabgrass, Large plant response rating: 500 g ai/ha
How it was run: (§1)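 Pre- and postemergence application, solvent/surfactant formulation; post at 1- to 4-leaf stage (2–18 cm). Greenhouse 12–14 d. Visual rating vs controls, 0 = no effect, 100 = complete control.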

[2] = test system: pigweed; test: Test C pre-/postemergence herbicide test; format: in vivo, Amaranthus retroflexus; settings: for Pigweed plant response rating: 500 g ai/ha
How it was run: as §1

[3] = test system: barnyardgrass; test: Test A pre-/postemergence herbicide test; format: in vivo, Echinochloa crus-galli; settings: for Plant response rating, Barnyardgrass: Postemergence; for Barnyardgrass plant response rating: Preemergence
How it was run: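 Visual injury rating on a 0–100 scale (0 no effect, 100 complete control) versus untreated controls, about ten days after treatment in greenhouse. Pre: directed soil spray onto seeded sandy loam. Post: spray to runoff on plants 2–10 cm tall at one- to two-leaf stage.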

[4] = test system: eastern black nightshade; test: Test C pre-/postemergence herbicide test; format: in vivo, Solanum ptycanthum; settings: for Plant response rating, Nightshade / Plant response rating (0 = no effect, 100 = complete control), Nightshade: preemergence
How it was run: as §1

[5] = test system: Surinam grass; test: Test C pre-/postemergence herbicide test; format: in vivo, Urochloa decumbens; settings: for Surinam Grass plant response rating: 500 g ai/ha
How it was run: as §1

[6] = test system: common ragweed; test: Test C pre-/postemergence herbicide test; format: in vivo, Ambrosia elatior; parameters: key to Plant response rating, Ragweed: 0 = no effect, 100 = complete control; settings: for Ragweed plant response rating: 500 g ai/ha
How it was run: as §1

[7] = test system: chickweed; test: Test C postemergence herbicide test; format: in vivo, Stellaria media
Description: At the same time, plants selected from these crop and weed species and also winter barley (Hordeum vulgare L.), blackgrass (Alopecurus myosuroides Huds.), canarygrass (Phalaris minor Retz.), chickweed (Stellaria media (L.) Vill.), downy bromegrass (Bromus tectorum L.), green foxtail (Setaria viridis (L.) Beauv.), Italian ryegrass (Lolium multiflorum Lam.), wheat (Triticum aestivum L.), wild oat (Avenafatua L.) and windgrass (Apera spica-venti (L.) Beauv.) were treated with postemergence applications of some of the test chemicals formulated in the same manner. Plants ranged in height from 2 to 18 cm (1- to 4-leaf stage) for postemergence treatments. Plant species in the flooded paddy test consisted of rice (Oryza sativa), smallflower umbrella sedge (Cyperus difformis L.), ducksalad (Heteranthera limosa (Sw.) Willd.) and barnyardgrass (Echinochloa crus-galli (L.) Beauv.) grown to the 2-leaf stage for testing. Treated plants and controls were maintained in a greenhouse for 12 to 14 days, after which time all species were compared to controls and visually evaluated. Plant response ratings, summarized in Table C, are based on a scale of 0 to 100 where 0 is no effect and 100 is complete control. A dash (-) response means no test result.

[8] = 31 g ai/ha, preemergence, scale 0 to 100
[9] = Postemergence, 125 g ai/ha, scale 0 to 100, 0 no effect, 100 complete control
[10] = postemergence, 31 g ai/ha, scale 0 to 100
[11] = postemergence, 125 g ai/ha, scale 0 to 100
[12] = postemergence, 62 g ai/ha, scale 0 to 100
[13] = 500 g ai/ha, 0 to 100 scale, 0 no effect, 100 complete control
[14] = 2000 g ai/ha, 0 to 100 scale, 0 no effect, 100 complete control
[15] = 500 g ai/ha, visual rating, 0 to 100 scale (0 no effect, 100 complete control)
[16] = 125 g ai/ha, scale 0 (no effect) to 100 (complete control), visual, 12 to 14 days, preemergence
[17] = 250 g ai/ha, scale 0 to 100 (0 no effect, 100 complete control), visual, 12 to 14 days, preemergence
[18] = Postemergence, 250 g ai/ha, scale 0 to 100, 0 no effect, 100 complete control
[19] = Preemergence, scale 0 to 100, 0 no effect, 100 complete control
[20] = 62 g ai/ha, preemergence, scale 0 to 100
[21] = 250 g ai/ha, scale 0-100, preemergence

C=Cn1nc(C(C)(C)C)cc1C(=O)Nc1cccc(C(=O)NCC)c1 [Compound 33]
Plant response rating, Crabgrass, Large [1, 8]: 90
Plant response rating (0 = no effect, 100 = complete control), Crabgrass, Large ([1]; 62 g ai/ha, preemergence): 100
Plant response rating, Crabgrass, Large ([1]; 125 g ai/ha, scale 0-100, preemergence): 100
Plant response rating, Crabgrass, Large [1, 9]: 50
Plant response rating, Crabgrass, Large [1, 10]: 40
Plant response rating, Pigweed [2, 8]: 30
Plant response rating (0 = no effect, 100 = complete control), Pigweed ([2]; 62 g ai/ha, preemergence): 50
Plant response rating, Pigweed [2, 11]: 100
Plant response rating, Pigweed [2, 10]: 90
Plant response rating, Pigweed [2, 12]: 100
Plant response rating, Barnyardgrass [3, 13]: 75
Plant response rating, Barnyardgrass [3, 14]: 90
Barnyardgrass plant response rating [3, 15]: 55
Barnyardgrass plant response rating [3, 14]: 80
Plant response rating, Nightshade ([4]; 31 g ai/ha, scale 0 to 100): 10
Plant response rating (0 = no effect, 100 = complete control), Nightshade ([4]; 62 g ai/ha): 60
Plant response rating, Surinam Grass [5, 8]: 20
Plant response rating (0 = no effect, 100 = complete control), Surinam Grass ([5]; 62 g ai/ha, preemergence): 20
Plant response rating, Surinam Grass [5, 11]: 50
Plant response rating, Surinam Grass [5, 10]: 50
Plant response rating, Surinam Grass [5, 12]: 50
Plant response rating, Ragweed [6, 8]: 0
Plant response rating (0 = no effect, 100 = complete control), Ragweed ([6]; 62 g ai/ha, preemergence): 0
Plant response rating, Ragweed [6, 11]: 70
Plant response rating, Ragweed [6, 12]: 60
Plant response rating, Chickweed [7, 9]: 100
Plant response rating, Chickweed ([7]; postemergence, 16 g ai/ha, scale 0 to 100): 30
Plant response rating, Chickweed [7, 10]: 40
Plant response rating, Chickweed [7, 12]: 90

C=CCNC(=O)c1cccc(NC(=O)c2cc(C(C)(C)C)nn2CC)c1 [Compound 46]
Plant response rating (0 = no effect, 100 = complete control), Crabgrass, Large ([1]; 62 g ai/ha, preemergence): 100
Plant response rating, Crabgrass, Large [1, 16]: 100
Plant response rating, Crabgrass, Large [1, 17]: 100
Crabgrass, Large plant response rating ([1]; Postemergence, scale 0 to 100): 90
Plant response rating, Crabgrass, Large [1, 9]: 90
Plant response rating, Crabgrass, Large [1, 18]: 90
Crabgrass, Large plant response rating [1, 19]: 100
Plant response rating (0 = no effect, 100 = complete control), Pigweed ([2]; 62 g ai/ha, preemergence): 20
Plant response rating, Pigweed [2, 16]: 100
Plant response rating, Pigweed [2, 17]: 100
Pigweed plant response rating ([2]; Postemergence, scale 0 to 100): 100
Plant response rating, Pigweed [2, 18]: 100
Pigweed plant response rating [2, 19]: 100
Plant response rating, Pigweed [2, 12]: 100
Plant response rating, Barnyardgrass [3, 13]: 100
Plant response rating, Barnyardgrass [3, 14]: 100
Barnyardgrass plant response rating [3, 15]: 90
Barnyardgrass plant response rating [3, 14]: 100
Plant response rating (0 = no effect, 100 = complete control), Nightshade ([4]; 62 g ai/ha): 90
Plant response rating, Nightshade ([4]; 125 g ai/ha, scale 0 (no effect) to 100 (complete control), visual, 12 to 14 days): 100
Plant response rating, Nightshade ([4]; 250 g ai/ha, scale 0 to 100 (0 no effect, 100 complete control), visual, 12 to 14 days): 100
Nightshade plant response rating ([4]; Preemergence, 500 g ai/ha, scale 0 to 100, 0 no effect, 100 complete control): 100
Plant response rating (0 = no effect, 100 = complete control), Surinam Grass ([5]; 62 g ai/ha, preemergence): 10
Plant response rating, Surinam Grass [5, 16]: 30
Plant response rating, Surinam Grass [5, 17]: 60
Surinam Grass plant response rating ([5]; Postemergence, scale 0 to 100): 50
Plant response rating, Surinam Grass [5, 18]: 50
Surinam Grass plant response rating [5, 19]: 80
Plant response rating, Surinam Grass [5, 12]: 40
Plant response rating (0 = no effect, 100 = complete control), Ragweed ([6]; 62 g ai/ha, preemergence): 10
Plant response rating, Ragweed [6, 16]: 40
Plant response rating, Ragweed [6, 17]: 90
Ragweed plant response rating ([6]; Postemergence, scale 0 to 100): 80
Plant response rating, Ragweed [6, 18]: 80
Ragweed plant response rating [6, 19]: 90
Plant response rating, Ragweed [6, 12]: 70
Chickweed plant response rating ([7]; Postemergence, 500 g ai/ha, scale 0 to 100): 100
Plant response rating, Chickweed [7, 9]: 70
Plant response rating, Chickweed [7, 18]: 80
Plant response rating, Chickweed [7, 12]: 70

CCOC(=O)c1cccc(NC(=O)c2nn(C(C)(C)CC)nc2CC)c1 [Compound 375]
Plant response rating, Crabgrass, Large [1, 20]: 60
Plant response rating (0 = no effect, 100 = complete control), Crabgrass, Large ([1]; 125 g ai/ha, preemergence): 70
Plant response rating, Crabgrass, Large [1, 21]: 100
Plant response rating, Crabgrass, Large [1, 18]: 20
Plant response rating, Crabgrass, Large [1, 11]: 20
Plant response rating, Crabgrass, Large [1, 12]: 5
Plant response rating, Pigweed [2, 20]: 50
Plant response rating (0 = no effect, 100 = complete control), Pigweed ([2]; 125 g ai/ha, preemergence): 50
Plant response rating, Pigweed [2, 21]: 100
Plant response rating, Pigweed [2, 12]: 80
Plant response rating, Nightshade ([4]; 62 g ai/ha, scale 0 to 100): 50
Plant response rating (0 = no effect, 100 = complete control), Nightshade ([4]; 125 g ai/ha): 50
Plant response rating, Nightshade ([4]; 250 g ai/ha, scale 0-100): 55
Plant response rating, Surinam Grass [5, 20]: 55
Plant response rating (0 = no effect, 100 = complete control), Surinam Grass ([5]; 125 g ai/ha, preemergence): 75
Plant response rating, Surinam Grass [5, 21]: 80
Plant response rating, Surinam Grass [5, 12]: 20
Plant response rating, Ragweed [6, 20]: 0
Plant response rating (0 = no effect, 100 = complete control), Ragweed ([6]; 125 g ai/ha, preemergence): 5
Plant response rating, Ragweed [6, 21]: 10
Plant response rating, Ragweed [6, 11]: 10
Plant response rating, Ragweed [6, 12]: 5
Plant response rating, Chickweed [7, 18]: 100
Plant response rating, Chickweed [7, 11]: 100
Plant response rating, Chickweed [7, 10]: 100
Plant response rating, Chickweed [7, 12]: 100
